Assay results published in patent publication US20040071768A1, “Compositions and methods for treating cancer” (Inex Pharmaceuticals Corporation, priority 1999, published 2004).
Read-outs that look alike come from different tables or passages of the source.

Tests used:
HT29 colon xenografts = assay: Single dose anti-tumor activity, HT29 colon xenograft; format: in vivo; conditions: HT-29
Experimental: Female NCr nude mice were injected intravenously via the lateral tail vein on day 12 post-tumor-implantation with saline (♦), NVB at 30.0 mg/kg (◯) and 25.5 mg/kg (□), or NVB-TCS at 15.0 mg/kg (●) and 11.0 mg/kg (▪) at a drug-to-lipid ratio of 0.3:1 (w/w). The arrow on the x-axis denotes the day of drug administration. Data points represent mean±SEM (n=7). […]
(§1) Tumor models investigated included RXF393 (renal), MX-1 (breast), LX-1 (small cell lung cancer), PC-3 (prostate), and HT29 (colon). These models were known to be sensitive to vinorelbine. Tumor fragments were implanted subcutaneously in the flank of NCr nu/nu mice. […] Animal weights and tumor size were determined twice weekly.

[1] = system: NCl H460 non small cell lung xenografts; assay: Multiple dose (q7dx3) anti-tumor activity, NCl H460 non small cell lung xenograft
Experimental: Female NCr nude mice were injected intravenously (q7dx3, beginning day 7) via the lateral tail vein. […] Mitomycin C (⋄) was prepared in saline and injected iv (q4dx3) at a dose of 3 mg/kg/dose. Drug-to-lipid ratio was 0.3/1 (w/w). Data points represent median tumor volume (n=6).
(§2) The anti-tumor activity of multiple (q7d3) dose schedules of liposomal vinorelbine was evaluated in several human xenograft tumor models. The goal of this series of studies was to identify the benefits of encapsulation by evaluating a series of doses and determining the therapeutic index in several xenograft models. Models were selected based on the following criteria: (1) activity in the single dose studies, (2) a comprehensive literature review of vinca alkaloid efficacy, (3) a desire to include at least 2-3 models that represent the clinical use of vinorelbine, and (4) a desire to include models with a range of sensitivity to vinorelbine so that improvements resulting from the use of the liposome formulation might be identified. Based on these criteria, MX-1 and MDA-MB-435 breast models, the NCl-H460 NSCLC model and the HT-29 and DLD-1 colon models were chosen.
(§3) Therapeutic index (TI) is a parameter that quantifies the “safety factor” of a particular therapy. TI is a ratio of a toxicity parameter and a biological activity parameter. Therefore, a higher ratio represents a greater potential margin of safety. For these studies, TI is defined as follows: […]
(§4) The minimal effective dose (MED) was set according to NCl activity criteria as the dose resulting in an optimal % T/C of 40. This information was derived from Table 7.

PC3 prostate xenografts = assay: Single dose anti-tumor activity, PC3 prostate xenograft; format: in vivo; conditions: PC-3
Experimental: Male NCr nude mice were injected intravenously via the lateral tail vein on day 9 post-tumor-implantation with saline (♦), NVB at 45.0 mg/kg (◯) and 34.0 mg/kg (□), or NVB-TCS at 15.0 mg/kg (●) and 11.0 mg/kg (▪) at a drug-to-lipid ratio of 0.3:1 (w/w). The arrow on the x-axis denotes the day of drug administration. Data points represent mean±SEM (n=10).
Vinorelbine is used clinically in the treatment of advanced NSCLC and metastatic breast cancer.
as §1

[2] = Maximum tolerable dose (MTD) of free and liposomal vinorelbine; format: in vivo, nude and ICR mice
Experimental: Single and multiple (q7dx3) dose MTD studies were performed in tumor-bearing and non-tumor bearing NCr nu/nu mice, as well as healthy, outbred ICR mice.

[3] = animal studies and clinical trials; cited from earlier work
[4] = system: MDA-MB-435 breast xenografts
Experimental: Female NCr nude mice were injected intravenously (q7dx3, beginning day 15) via the lateral tail vein. […] Paclitaxel (⋄) was prepared in […]/12.5% ethanol/75% saline and injected iv (q1dx5) at a dose of 15 mg/kg/dose. Drug-to-lipid ratio was 0.3/1 (w/w). Data points represent median tumor volume (n=6).
as §2, §3, §4

CCC1=C[C@@H]2CN(C1)Cc1c([nH]c3ccccc13)[C@@](C(=O)OC)(c1cc3c(cc1OC)N(C)[C@H]1[C@@](O)(C(=O)OC)[C@H](OC(C)=O)[C@]4(CC)C=CCN5CC[C@]31[C@@H]54)C2 [VRL, 5′-noranhydrovinblastine]
% T/C (optimal % T/C following final treatment) (HT29 colon xenografts; single i.v. dose 25.5 mg/kg): 35%
DRD (drug related deaths) (HT29 colon xenografts; single i.v. dose 25.5 mg/kg): 0/7
MWL (maximum mean weight loss per treatment group) (HT29 colon xenografts; single i.v. dose 25.5 mg/kg): −9.8
NCI Score (HT29 colon xenografts; single i.v. dose 25.5 mg/kg): 1
T-C (tumor growth delay to 1000 mm^3) (HT29 colon xenografts; single i.v. dose 25.5 mg/kg): 12
TF (tumor free animals at the end of study) (HT29 colon xenografts; single i.v. dose 25.5 mg/kg): 1/7
% T/C (optimal % T/C following final treatment) (HT29 colon xenografts; single i.v. dose 30 mg/kg): 31%
DRD (drug related deaths) (HT29 colon xenografts; single i.v. dose 30 mg/kg): 0/7
MWL (maximum mean weight loss per treatment group) (HT29 colon xenografts; single i.v. dose 30 mg/kg): −9.3
NCI Score (HT29 colon xenografts; single i.v. dose 30 mg/kg): 1
T-C (tumor growth delay to 1000 mm^3) (HT29 colon xenografts; single i.v. dose 30 mg/kg): 9
TF (tumor free animals at the end of study) (HT29 colon xenografts; single i.v. dose 30 mg/kg): 1/7
% T/C (optimal % T/C following final treatment) ([1]; 5 mg/kg i.v. q7dx3): 63%
DRD (drug related deaths, n = 6) ([1]; 5 mg/kg i.v. q7dx3): 0
NCI Score ([1]; 5 mg/kg i.v. q7dx3): 0
T-C (tumor growth delay to 1000 mm^3) ([1]; 5 mg/kg i.v. q7dx3): 2.8
TF (tumor free animals at the end of study) ([1]; 5 mg/kg i.v. q7dx3, n=6): 0
% T/C (optimal % T/C following final treatment) ([1]; 10 mg/kg i.v. q7dx3): 45%
DRD (drug related deaths, n = 6) ([1]; 10 mg/kg i.v. q7dx3): 0
NCI Score ([1]; 10 mg/kg i.v. q7dx3): 0
T-C (tumor growth delay to 1000 mm^3) ([1]; 10 mg/kg i.v. q7dx3): 6.2
TF (tumor free animals at the end of study) ([1]; 10 mg/kg i.v. q7dx3, n=6): 0
% T/C (optimal % T/C following final treatment) ([1]; 20 mg/kg i.v. q7dx3): 30%
DRD (drug related deaths, n = 6) ([1]; 20 mg/kg i.v. q7dx3): 0
NCI Score ([1]; 20 mg/kg i.v. q7dx3): 1
T-C (tumor growth delay to 1000 mm^3) ([1]; 20 mg/kg i.v. q7dx3): 9.1
TF (tumor free animals at the end of study) ([1]; 20 mg/kg i.v. q7dx3, n=6): 0
% T/C (optimal % T/C following final treatment) ([1]; 30 mg/kg i.v. q7dx3): 10%
DRD (drug related deaths, n = 6) ([1]; 30 mg/kg i.v. q7dx3): 2
NCI Score ([1]; 30 mg/kg i.v. q7dx3): 1
T-C (tumor growth delay to 1000 mm^3) ([1]; 30 mg/kg i.v. q7dx3): 19.1
TF (tumor free animals at the end of study) ([1]; 30 mg/kg i.v. q7dx3, n=6): 0
% T/C (optimal % T/C following final treatment) (PC3 prostate xenografts; single i.v. dose 34 mg/kg): −3%
DRD (drug related deaths) (PC3 prostate xenografts; single i.v. dose 34 mg/kg): 2/10
MWL (maximum mean weight loss per treatment group) (PC3 prostate xenografts; single i.v. dose 34 mg/kg): −18.7
NCI Score (PC3 prostate xenografts; single i.v. dose 34 mg/kg): 2
T-C (tumor growth delay to 1000 mm^3) (PC3 prostate xenografts; single i.v. dose 34 mg/kg): 34
TF (tumor free animals at the end of study) (PC3 prostate xenografts; single i.v. dose 34 mg/kg): 1/8
% T/C (optimal % T/C following final treatment) (PC3 prostate xenografts; single i.v. dose 45 mg/kg): Toxic
DRD (drug related deaths) (PC3 prostate xenografts; single i.v. dose 45 mg/kg): 5/10
MWL (maximum mean weight loss per treatment group) (PC3 prostate xenografts; single i.v. dose 45 mg/kg): −25.4
TF (tumor free animals at the end of study) (PC3 prostate xenografts; single i.v. dose 45 mg/kg): 4/5
MTD ([2]; NCr nu/nu and ICR, mouse, in vivo, intravenous, q7dx3 dose schedule, estimated, read-out: maximum tolerated dose (MTD)): 25 to 30 mg/kg
MTD ([2]; NCr nu/nu and ICR, mouse, in vivo, single dose, estimated, read-out: maximum tolerated dose (MTD)): 30 mg/kg
MTD ([2]; given intravenously on a q7dx3 schedule): 27.5 mg/kg/dose
MTD used in the calculation of therapeutic index (TI) ([2]; q7dx3, derived from Table 5): 27.5 mg/kg
drug excreted in feces [3]: 40-50%
drug excreted in urine [3]: ~20%
% T/C (optimal % T/C following final treatment) ([4]; 5 mg/kg i.v. q7dx3): −3%
DRD (drug related deaths, n = 6) ([4]; 5 mg/kg i.v. q7dx3): 0
NCI Score ([4]; 5 mg/kg i.v. q7dx3): 2
T-C (tumor growth delay to 1000 mm^3) ([4]; 5 mg/kg i.v. q7dx3): 37.5
TF (tumor free animals at the end of study) ([4]; 5 mg/kg i.v. q7dx3, n=6): 0
% T/C (optimal % T/C following final treatment) ([4]; 10 mg/kg i.v. q7dx3): −100%
DRD (drug related deaths, n = 6) ([4]; 10 mg/kg i.v. q7dx3): 0
NCI Score ([4]; 10 mg/kg i.v. q7dx3): 3
T-C (tumor growth delay to 1000 mm^3) ([4]; 10 mg/kg i.v. q7dx3): >62
TF (tumor free animals at the end of study) ([4]; 10 mg/kg i.v. q7dx3, n=6): 1
% T/C (optimal % T/C following final treatment) ([4]; 20 mg/kg i.v. q7dx3): −100%
DRD (drug related deaths, n = 6) ([4]; 20 mg/kg i.v. q7dx3): 2
NCI Score ([4]; 20 mg/kg i.v. q7dx3): 4
T-C (tumor growth delay to 1000 mm^3) ([4]; 20 mg/kg i.v. q7dx3): >62
TF (tumor free animals at the end of study) ([4]; 20 mg/kg i.v. q7dx3, n=6): 4
% T/C (optimal % T/C following final treatment) ([4]; 30 mg/kg i.v. q7dx3): −100%
DRD (drug related deaths, n = 6) ([4]; 30 mg/kg i.v. q7dx3): 1
NCI Score ([4]; 30 mg/kg i.v. q7dx3): 4
T-C (tumor growth delay to 1000 mm^3) ([4]; 30 mg/kg i.v. q7dx3): >62
TF (tumor free animals at the end of study) ([4]; 30 mg/kg i.v. q7dx3, n=6): 3
